{"source": "patent US7745410B2", "about": "“Bladder tumor-targeting peptide and use thereof” (Kyungpook National University Industry-Academica …, priority 2006, dated 2010)", "key": {"[1]": {"tested_on": "human bladder tumor tissue", "assay": "Binding of FITC-peptide to frozen tissue sections (fluorescence microscopy)", "settings": "10 μM peptide, 4° C., 1 hour, FIG. 4", "protocol": "FIG. 4 is a set of photographs showing the binding specificity to the frozen section of human bladder tumor cells of the peptide according to the present invention having FITC attached thereto, wherein the green fluorescence represents the peptide according to the present invention, and the blue fluorescence represents the nucleus stained with DAPI;\nNext, 10 μM of the peptide, FITC-CSNRDARRC, was allowed to react with the tissues at 4° C. for 1 hour. As a control, a peptide (SEQ ID NO: 10; CDASRRNRC), which had the same number of amino acids as the peptide according to the present invention but included a randomly modified amino acid sequence between both terminal cystein residues, was used. After the reaction of each peptide, a mounting solution (molecular Probe) containing a nucleus staining reagent, DAPI (4′,6-diamidino-2-phenylindole), was treated on the surface of the slide according to the method known to one skilled in the art. Then, the slide was observed by using a fluorescence microscope."}, "[2]": {"tested_on": "cells separated from the urine of a patient suffering from bladder tumor", "assay": "Binding of FITC-peptide to cells collected from urine (fluorescence microscopy)", "format": "cell-based, human", "settings": "4° C., 1 hour; FIG. 7", "protocol": "FIG. 7 is a set of fluorescence microscopic photographs showing the binding specificity of the target peptide having FITC attached thereto to cells separated from the urine of a patient suffering from bladder tumor, wherein the green fluorescence represents the peptide according to the present invention, and the blue fluorescence represents the nucleus stained with DAPI;\nUrine of a patient that was in the hospital for surgical operation on the bladder tumor was centrifuged with 1500 rpm at 4° C. for 10 minutes to collect cells. As a control, bladder cells, collected from the urine of a normal human in the same manner as described above, were used. Next, the collected cells were allowed to react with the FITC-peptide 1 described in Example <2-2> and the control peptide (SEQ ID NO: 10) at 4° C. for 1 hour. After staining the cells with DAPI, the cells were transferred onto a slide and observed with a fluorescence microscope. Meanwhile, the cells were stained with the PAP staining method (Papanicolau and Marshall, Science 101:519, 1945), currently used as a method for the diagnosis of bladder tumor, to observe the presence of tumor cells."}, "[3]": {"tested_on": "BBN-induced bladder tumor", "assay": "In vivo micro PET imaging after intravenous injection of radiolabeled peptides", "design": "species or system rat", "settings": "14 hours after intravenous injection; tumor-bearing F344 rats; 380 μCi peptide 1, 313 μCi control; FIG. 8", "protocol": "For radioiodination, each of CSNRDARRC peptide (SEQ ID NO: 1) and CDASRRNRC control peptide (SEQ ID NO: 10) was added with a tyrosine residue at the N-terminus during synthesis. […] The synthetic peptide was labeled with [131I]NaI by using Iodo-bead (Pierce Biochemical Co., Rockford, Ill.). The bead was washed with phosphate-buffered saline (PBS), pH 7.2 and dried on filter paper for 5 min. The washed bead was added to a solution of [131I]NaI (100 MBq) in PBS. After shaking at RT for 5 min, the peptide solution (14 mg in 20 mL distilled water) was added to the [131I]NaI solution containing Iodo-bead. [131I]NaI (T1/2=[…]) was purchased from Korea Institute of Radiology and Science (KIRAMS; Seoul, Korea). The reaction was allowed to proceed for 15 min at RT by gentle shaking and then stopped by the removal of the bead out of the reaction tube. The 131I-incorporation yield measured by radio-TLC was 47% (silica, 10% ammonium acetate:methanol=30:70). […] The radiochemical purity of final solution was measured to be over 81.2%. […]\nIn contrast, uptake of the control peptide (313 μCi) was minimal (FIG. 8 D-F). These findings indicate that the radioactivity shown in rat bladder is not a non-specific one from urinary excretion of the radiolabeled peptides but a specific one from the uptake of the peptide by bladder tumor tissues."}, "[4]": {"tested_on": "bladder tumor cells separated from the human bladder tissue", "assay": "Binding of phage clones to bladder tumor cells and normal bladder cells from patient tissue (phage titer)", "format": "cell-based", "settings": "phage clones of Example 1", "protocol": "FIG. 3 is a graph showing the binding specificity of six positive phage clones to the bladder tumor cells separated from the human bladder tissue and to the normal bladder cells;\nBladder tumor cells were separated from fresh bladder tumor tissue obtained from six patients with a bladder tumor by transurethral resection of bladder tumor, according to a known method. The cells were measured for the specific binding of the six individual phage clones (SEQ ID NO: 1 to SEQ ID NO: 6) described in Example 1 to the tumor cells and compared their binding to that of the normal cells. First, bladder tumor tissue and normal bladder tissue were pulverized finely to provide cell suspensions, and the six phages (5×10^9 pfu) were allowed react with the cells at 4° C. for 2 hours. A non-recombinant phage, T7 415-1b phage, was used as a control phage. Next, tumor cells and the normal epithelial cells were separated from the cell suspensions formed from the tumor tissue and the normal tissue by using magnetic beads coated with epithelial cell antibodies, in the same manner as described in Example <1-2>. Then, phages were detected from the cells and measured for the titer of phages, in the same manner as described in Example <1-2>."}, "bladder tumor tissue": {"tested_on": "bladder tumor tissue", "assay": "In vivo targeting after injection into the bladder via the urethra (BBN-induced bladder tumor)", "design": "species or system rat", "settings": "50 μM injected into bladder via urethra, 30 minutes, FIG. 5", "from_the_text": "FIG. 5 is a set of photographs showing the binding specificity to bladder tumor tissue of the peptide according to the present invention having FITC attached thereto, after injecting the peptide into the mouse bladder in which a bladder tumor is induced, wherein the green fluorescence represents the peptide according to the present invention, and the red fluorescence represents an epithelial cell stained with cytokeratin;\n(§1) First, 4 week-aged F344 rats (n=10) (Hyochang Science) were fed with water containing 0.05% of N-butyl-N-4-hydroxybutylnitrosoamine (BBN) for 8 weeks to induce a bladder tumor.\n50 μM of FITC-CSNRDARRC peptide described in Example <2-2> was injected into the bladder of each of the mouse, in which a bladder tumor was induced, and a normal mouse via the urethra, followed by reaction for 30 minutes. Then, the bladder was removed from each mouse and a frozen section was provided. The frozen section was stained by H&E staining according to a method known to one skilled in the art. […] Then, 1:200 dilution of a secondary antibody, to which a red fluorescence material (Alexa red) was bonded, was allowed to react with the cells at room temperature for 1 hour, followed by treatment with a mounting solution containing DAPI. Next, the cells were observed by using a fluorescence microscope."}, "bladder tumor cells": {"tested_on": "bladder tumor cells", "assay": "In vivo targeting after tail vein injection (BBN-induced bladder tumor)", "design": "species or system rat", "settings": "final 50 μM in blood", "from_the_text": "FIG. 6 is a set of photographs showing the in vivo targeting capability of the peptide according to the present invention, after injecting the peptide having FITC attached thereto into the tail venous vessel of a mouse in which a bladder tumor is induced, wherein the green fluorescence represents the peptide according to the present invention, and the red fluorescence represents an epithelial cell stained with cytokeratin;\nas §1\n(§2) The FITC-peptide 1 was injected into the mouse, in which a bladder tumor induced, and into the normal mouse via the tail venous to a final concentration of 50 μM in the blood, followed by circulation for 2 hours. Additionally, to determine whether the peptide according to the present invention specifically targets the bladder tumor in vivo, a malignant melanoma was induced in a mouse (Hyochang Science), and the peptide according to the present invention was injected into the mouse in the same manner as described above. Then, the bladder was removed from each mouse to prepare a frozen section, which, in turn, was stained by H&E staining or cytokeratin staining. Each section was observed by using a fluorescence microscope."}, "[5]": {"tested_on": "malignant melanoma tissue", "assay": "In vivo targeting after tail vein injection in mouse with induced malignant melanoma", "settings": "final 50 μM in blood, 2 hours", "protocol": "k: microscopic photograph of malignant melanoma of mouse injected with the peptide according to the present invention and stained with H & E; and\nl: fluorescence microscopic photograph of cancer tissue of mouse injected with the peptide according to the present invention and stained with DAPI; and\nas §2"}}, "note": "Positions of bridges follow the written chain, without caps; N, C: chain ends. No end group written: not given here. *: point of attachment. FITC = O=C1OC2(c3ccc(O)cc3Oc3cc(O)ccc32)c2ccc(NC(=S)*)cc21", "data": [{"substance": "CDASRRNRC (YCDASRRNRC; disulfide 2-10; numbers in words are those of the source; also: 124I radiolabel) [control peptide, radioiodinated with added N-terminal tyrosine for PET, reference compound]", "values": [{"measurement": "binding to bladder tumor tissue", "setting": "[1]", "result": "substantially showed no binding"}, {"measurement": "fluorescence/binding in urine cells of the patient suffering from bladder tumor", "setting": "[2]", "result": "could not be bonded"}, {"measurement": "uptake in bladder on micro PET images", "setting": "[3]", "result": "minimal"}]}, {"substance": "CSNRDARRC (disulfide 1-9; not fully specified (N-terminus)) [peptide 1]", "values": [{"measurement": "binding capability among the six phage clones", "setting": "[4]", "result": "highest binding capability"}]}, {"substance": "FITC-CSNRDARRC ({FITC}-CSNRDARRC; disulfide 1-9) [FITC-peptide 1, peptide 1 with FITC (fluorescein isothiocyanate) linked to its amino terminal]", "values": [{"measurement": "binding to bladder tumor tissue", "setting": "[1]", "result": "bonded specifically"}, {"measurement": "fluorescence in epithelial cells at the site where a bladder tumor was induced", "setting": "bladder tumor tissue", "result": "green fluorescence was observed"}, {"measurement": "fluorescence in epithelial cells covering the normal bladder", "setting": "bladder tumor tissue; normal animal", "result": "no fluorescence was observed"}, {"measurement": "detection of peptide in lung tissue of a normal mouse", "setting": "bladder tumor cells; 2 hours", "result": "not detected"}, {"measurement": "detection of peptide in normal bladder cells", "setting": "bladder tumor cells; 2 hours, normal animal", "result": "not detected"}, {"measurement": "targeting of bladder tumor cells after injection into the blood", "setting": "bladder tumor cells; circulation 2 hours, FIG. 6", "result": "targets the bladder tumor cells"}, {"measurement": "detection of peptide in malignant melanoma tissue", "setting": "[5]", "result": "not detected"}, {"measurement": "fluorescence in control cells (urine of a normal human)", "setting": "[2]", "result": "fluorescence was not detected"}, {"measurement": "fluorescence/binding in urine cells of the patient suffering from bladder tumor", "setting": "[2]", "result": "green fluorescence was observed"}]}]}
